System: 857933-349-R-J2-PDC complex spheroids, viability
Assay: Anticancer human tumor 857933-349-R-J2-PDC patient-derived colon adenocarcinoma cell line growth inhibition [GQUAD]
Details: for IC50: curve of first compound; for viability, T/C: stronger effect = lower value
Outline: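 Viability of tumor cells grown as complex spheroids with endothelial and stromal cells, exposed to drug combinations. Top concentration at or near clinical Cmax (else 10 microM), diluted in half-log increments.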

[1] = second compound 0.0316 µM, first compound 0.0316 µM
[2] = second compound 0.0316 µM, first compound 0.1 µM
[3] = second compound 0.0316 µM, first compound 0.316 µM
[4] = second compound 0.0316 µM, first compound 1 µM
[5] = second compound 0.0316 µM, first compound 3.16 µM
[6] = second compound 0.0316 µM, first compound 10 µM
[7] = second compound 0.1 µM, first compound 0.0316 µM
[8] = second compound 0.1 µM, first compound 0.1 µM
[9] = second compound 0.1 µM, first compound 0.316 µM
[10] = second compound 0.1 µM, first compound 1 µM
[11] = second compound 0.1 µM, first compound 3.16 µM
[12] = second compound 0.1 µM, first compound 10 µM
[13] = second compound 0.316 µM, first compound 0.0316 µM
[14] = second compound 0.316 µM, first compound 0.1 µM
[15] = second compound 0.316 µM, first compound 0.316 µM
[16] = second compound 0.316 µM, first compound 1 µM
[17] = second compound 0.316 µM, first compound 3.16 µM
[18] = second compound 0.316 µM, first compound 10 µM
[19] = second compound 1 µM, first compound 0.0316 µM
[20] = second compound 1 µM, first compound 0.1 µM
[21] = second compound 1 µM, first compound 0.316 µM
[22] = second compound 1 µM, first compound 1 µM
[23] = second compound 1 µM, first compound 3.16 µM
[24] = second compound 1 µM, first compound 10 µM
[25] = second compound 3.16 µM, first compound 0.0316 µM
[26] = second compound 3.16 µM, first compound 0.1 µM
[27] = second compound 3.16 µM, first compound 0.316 µM
[28] = second compound 3.16 µM, first compound 1 µM
[29] = second compound 3.16 µM, first compound 3.16 µM
[30] = second compound 3.16 µM, first compound 10 µM
[31] = second compound 10 µM, first compound 0.0316 µM
[32] = second compound 10 µM, first compound 0.1 µM
[33] = second compound 10 µM, first compound 0.316 µM
[34] = second compound 10 µM, first compound 1 µM
[35] = second compound 10 µM, first compound 3.16 µM
[36] = second compound 10 µM, first compound 10 µM
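Also: spheroids exposed to compounds for one week before readout.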
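For viability, T/C in this document: percent viability relative to vehicle DMSO wells taken as 100%.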

Nc1ccn(C2OC(CO)C(O)C2(F)F)c(=O)n1 (stereo not drawn) + CN(C)c1ccc(Nc2c3ccc(NC(=O)CCN4CCCC4)cc3nc3cc(NC(=O)CCN4CCCC4)ccc23)cc1 gave an IC50 (second compound 0.0316 µM) of 366 nM, an IC50 (second compound 0.1 µM) of 383 nM and an IC50 (second compound 0.316 µM) of 357 nM. For the same compound, the IC50 (second compound 1 µM) was 379 nM, the IC50 (second compound 3.16 µM) was 497 nM and the IC50 (second compound 10 µM) was 639 nM. The viability, T/C [1] was 99.8%, the viability, T/C [2] was 78.5% and the viability, T/C [3] was 56.7%. It also gave a viability, T/C [4] of 26.6%, a viability, T/C [5] of 15.5% and a viability, T/C [6] of 16.1%. It also gave a viability, T/C [7] of 98.8%, a viability, T/C [8] of 81.3% and a viability, T/C [9] of 58.3%. For the same compound, the viability, T/C [10] was 22.9%, the viability, T/C [11] was 15% and the viability, T/C [12] was 15.7%. The viability, T/C [13] was 98.5%, the viability, T/C [14] was 81.3% and the viability, T/C [15] was 57%. The viability, T/C [16] was 18.1%, the viability, T/C [17] was 14.6% and the viability, T/C [18] was 15.6%. It also gave a viability, T/C [19] of 97%, a viability, T/C [20] of 77.3% and a viability, T/C [21] of 60%. The viability, T/C [22] was 19.4%, the viability, T/C [23] was 16.6% and the viability, T/C [24] was 14.5%. It also gave a viability, T/C [25] of 83.2%, a viability, T/C [26] of 75.9% and a viability, T/C [27] of 65.2%. The viability, T/C [28] was 27%, the viability, T/C [29] was 18.3% and the viability, T/C [30] was 16.5%. The viability, T/C [31] was 73.8%, the viability, T/C [32] was 73.4% and the viability, T/C [33] was 60.7%. For the same compound, the viability, T/C [34] was 43.8%, the viability, T/C [35] was 24.3% and the viability, T/C [36] was 21.8%.
In the case of CC(=O)O[C@H]1C(=O)[C@@]2(C)[C@H]([C@H](OC(=O)c3ccccc3)[C@]3(O)C[C@H](OC(=O)[C@H](O)[C@@H](NC(=O)c4ccccc4)c4ccccc4)C(C)=C1C3(C)C)[C@]1(OC(C)=O)CO[C@@H]1C[C@@H]2O + CN(C)c1ccc(Nc2c3ccc(NC(=O)CCN4CCCC4)cc3nc3cc(NC(=O)CCN4CCCC4)ccc23)cc1, the IC50 (second compound 0.0316 µM) is reported as 66.3 nM, the IC50 (second compound 0.1 µM) is reported as 62.7 nM and the IC50 (second compound 0.316 µM) is reported as 62.1 nM. For the same compound, the IC50 (second compound 1 µM) was 60.2 nM, the IC50 (second compound 3.16 µM) was 55.1 nM and the IC50 (second compound 10 µM) was < 31.6 nM. The viability, T/C [1] was 75%, the viability, T/C [2] was 36% and the viability, T/C [3] was 22.3%. For the same compound, the viability, T/C [4] was 23.4%, the viability, T/C [5] was 23.6% and the viability, T/C [6] was 27.1%. It also gave a viability, T/C [7] of 75.5%, a viability, T/C [8] of 33.7% and a viability, T/C [9] of 22.2%. The viability, T/C [10] was 23%, the viability, T/C [11] was 22.6% and the viability, T/C [12] was 26.4%. It also gave a viability, T/C [13] of 70.9%, a viability, T/C [14] of 35.2% and a viability, T/C [15] of 19.6%. For the same compound, the viability, T/C [16] was 20.5%, the viability, T/C [17] was 24% and the viability, T/C [18] was 27.2%. It also gave a viability, T/C [19] of 71.6%, a viability, T/C [20] of 33% and a viability, T/C [21] of 22.1%. For the same compound, the viability, T/C [22] was 21.3%, the viability, T/C [23] was 26.2% and the viability, T/C [24] was 26.8%. It also gave a viability, T/C [25] of 67.4%, a viability, T/C [26] of 31.6% and a viability, T/C [27] of 26%. For the same compound, the viability, T/C [28] was 24.5%, the viability, T/C [29] was 27.2% and the viability, T/C [30] was 30.9%. For the same compound, the viability, T/C [31] was 54.9%, the viability, T/C [32] was 43.9% and the viability, T/C [33] was 38.6%. The viability, T/C [34] was 33.4%, the viability, T/C [35] was 34.3% and the viability, T/C [36] was 41.4%.
With C#Cc1c(F)ccc2cc(O)cc(-c3ncc4c(N5CC6CCC(C5)N6)nc(OCC56CCCN5CC(F)C6)nc4c3F)c12 (stereo not drawn) + Cc1[nH]c2ccc(F)cc2c1-c1nc2c3cccnc3c3ncccc3c2[nH]1 the IC50 (second compound 0.0316 µM) was > 10000 nM, the IC50 (second compound 0.1 µM) was > 10000 nM and the IC50 (second compound 0.316 µM) was > 10000 nM. The IC50 (second compound 1 µM) was > 10000 nM, the IC50 (second compound 3.16 µM) was > 10000 nM and the IC50 (second compound 10 µM) was > 10000 nM. It also gave a viability, T/C [1] of 109%, a viability, T/C [2] of 96.3% and a viability, T/C [3] of 91.9%. For the same compound, the viability, T/C [4] was 80.7%, the viability, T/C [5] was 74.3% and the viability, T/C [6] was 63.9%. It also gave a viability, T/C [7] of 104%, a viability, T/C [8] of 98.5% and a viability, T/C [9] of 89.2%. The viability, T/C [10] was 85.2%, the viability, T/C [11] was 71.3% and the viability, T/C [12] was 66.7%. For the same compound, the viability, T/C [13] was 101%, the viability, T/C [14] was 90.8% and the viability, T/C [15] was 86.3%. For the same compound, the viability, T/C [16] was 78.4%, the viability, T/C [17] was 81.7% and the viability, T/C [18] was 70.1%. It also gave a viability, T/C [19] of 98.2%, a viability, T/C [20] of 87.5% and a viability, T/C [21] of 93.3%. It also gave a viability, T/C [22] of 78.8%, a viability, T/C [23] of 86.7% and a viability, T/C [24] of 75.7%. For the same compound, the viability, T/C [25] was 94.3%, the viability, T/C [26] was 83.2% and the viability, T/C [27] was 81.6%. It also gave a viability, T/C [28] of 73.3%, a viability, T/C [29] of 80.8% and a viability, T/C [30] of 74.3%. It also gave a viability, T/C [31] of 90.4%, a viability, T/C [32] of 93.7% and a viability, T/C [33] of 87%. For the same compound, the viability, T/C [34] was 79.9%, the viability, T/C [35] was 78.8% and the viability, T/C [36] was 66.8%.
In the case of CC1COCCN1c1cc(-c2ccnn2C)c2ccnc(-c3ccn[nH]3)c2n1 (stereo not drawn) + Cc1cnc(CNC(=O)c2c(=O)c3ccc(N4CCCN(C)CC4)nc3n3c2sc2ccccc23)cn1, the IC50 (second compound 0.0316 µM) is reported as < 31.6 nM, the IC50 (second compound 0.1 µM) is reported as < 31.6 nM and the IC50 (second compound 0.316 µM) is reported as < 31.6 nM. The IC50 (second compound 1 µM) was < 31.6 nM, the IC50 (second compound 3.16 µM) was < 31.6 nM and the IC50 (second compound 10 µM) was < 31.6 nM. For the same compound, the viability, T/C [1] was 49.6%, the viability, T/C [2] was 33.7% and the viability, T/C [3] was 33.5%. For the same compound, the viability, T/C [4] was 31.8%, the viability, T/C [5] was 38.3% and the viability, T/C [6] was 41.4%. It also gave a viability, T/C [7] of 30.5%, a viability, T/C [8] of 25.8% and a viability, T/C [9] of 18.4%. It also gave a viability, T/C [10] of 23.6%, a viability, T/C [11] of 31% and a viability, T/C [12] of 32.4%. The viability, T/C [13] was 12.3%, the viability, T/C [14] was 6.9% and the viability, T/C [15] was 5.16%. For the same compound, the viability, T/C [16] was 5.25%, the viability, T/C [17] was 9.22% and the viability, T/C [18] was 16%. For the same compound, the viability, T/C [19] was 2.71%, the viability, T/C [20] was 2.88% and the viability, T/C [21] was 2.86%. The viability, T/C [22] was 2.6%, the viability, T/C [23] was 4.59% and the viability, T/C [24] was 8.81%. The viability, T/C [25] was 2.08%, the viability, T/C [26] was 3.98% and the viability, T/C [27] was 2.01%. The viability, T/C [28] was 1.59%, the viability, T/C [29] was 2.42% and the viability, T/C [30] was 5%. The viability, T/C [31] was 1.03%, the viability, T/C [32] was 0.7% and the viability, T/C [33] was 0.73%. For the same compound, the viability, T/C [34] was 0.54%, the viability, T/C [35] was 1.7% and the viability, T/C [36] was 2.18%.

Reference: PubChem BioAssay AID2060491 (Molecular Pharmacology Branch, DTP, NCI, 2025)
